Results published in US6673899B2, “Sodium ion-driven chloride /bi-carbonate exchanger” (JCR Pharmaceuticals Co., Ltd., priority 2000, dated 2004).

Legend:
[1] = molecular target: T1, NCBE (Na+-driven Cl-/HCO3- exchanger) (Mus musculus, UniProt Q5DTL9); test: 22Na+ uptake in NCBE cRNA-injected Xenopus laevis oocytes; type: cell-based
T1 construct: expressed in transfected cells; host or cells: Xenopus laevis oocytes injected with NCBE cRNA (pSD5, SP6 transcript)
T1 sequence (Q5DTL9 1-1088 isoform Q5DTL9-2): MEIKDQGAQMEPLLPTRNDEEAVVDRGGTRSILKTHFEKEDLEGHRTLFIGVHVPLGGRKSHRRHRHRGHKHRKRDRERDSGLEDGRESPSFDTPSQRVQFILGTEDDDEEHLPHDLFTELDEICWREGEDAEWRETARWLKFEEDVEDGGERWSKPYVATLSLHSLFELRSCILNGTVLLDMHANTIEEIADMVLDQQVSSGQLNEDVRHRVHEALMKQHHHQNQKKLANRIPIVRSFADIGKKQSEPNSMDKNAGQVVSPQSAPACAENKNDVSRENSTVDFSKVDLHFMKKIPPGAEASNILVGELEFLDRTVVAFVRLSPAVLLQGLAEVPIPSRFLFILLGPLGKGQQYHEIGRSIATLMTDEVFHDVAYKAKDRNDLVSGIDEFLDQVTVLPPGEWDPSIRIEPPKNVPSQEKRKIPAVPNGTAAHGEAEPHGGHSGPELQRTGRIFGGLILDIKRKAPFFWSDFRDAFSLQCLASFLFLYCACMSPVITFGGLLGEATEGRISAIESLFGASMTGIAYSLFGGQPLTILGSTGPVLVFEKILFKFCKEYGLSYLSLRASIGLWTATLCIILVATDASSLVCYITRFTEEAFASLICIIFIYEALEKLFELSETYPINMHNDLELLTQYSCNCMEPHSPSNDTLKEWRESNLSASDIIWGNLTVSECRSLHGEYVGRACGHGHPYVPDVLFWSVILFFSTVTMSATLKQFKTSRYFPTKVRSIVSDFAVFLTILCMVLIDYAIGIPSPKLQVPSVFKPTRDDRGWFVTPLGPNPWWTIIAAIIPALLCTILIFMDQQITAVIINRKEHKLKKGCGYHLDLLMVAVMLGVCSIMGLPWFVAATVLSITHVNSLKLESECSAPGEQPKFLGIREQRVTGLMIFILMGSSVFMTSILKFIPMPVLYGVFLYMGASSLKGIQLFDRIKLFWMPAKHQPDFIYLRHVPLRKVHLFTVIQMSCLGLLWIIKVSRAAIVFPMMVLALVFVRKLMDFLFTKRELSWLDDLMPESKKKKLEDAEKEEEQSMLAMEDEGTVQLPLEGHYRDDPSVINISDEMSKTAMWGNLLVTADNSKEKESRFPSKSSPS
Procedure: (§1) The coding sequence of NCBE in pSD5 was linearized by digestion with FspI and in vitro transcribed with SP6 RNA polymerase as previously described (Wang, C -Z. et al., Biochem. Biophys. Res. Commun., 220:196-202(1996)). Defolliculated oocytes were injected with NCBE cRNA (50 nl, 0.5 μg/μl) or water and incubated in 1×MBS medium (88 mM NaCl, 1 mM KCl, 0.8 mM MgCl2, 0.4 mM CaCl2, 0.3 mM Ca(NO3)2, 2.4 mM NaHCO3 and 7.5 mM Tris, pH 7.4) for 3-5 days at 18° C. before the studies. The oocytes were preincubated for one hr at 18° C. in the standard solution (100 mM NaCl, 2 mM KCl, 1 mM MgCl2, 1 mM CaCl2, and 8 mM NaHCO3, pH 7.4).
(§2) For studies of dependency on extracellular Na^+concentration, the oocytes were then incubated in 1.4 ml of either 1, 10, 30 or 100 mM Na^+solution bubbled with 1.5% CO2, pH 7.4 with 0.074 MBq of ^22Na+ (NEN™ Life Science Products, Boston, Mass.). In each solution, the Na^+in the standard solution was substituted with an equal molar amount of choline. A ten μl aliquot was removed from the incubation solution for later determination of ^22Na^+-specific activity. […]
(§3) The present inventors also examined the effect of DIDS, an inhibitor of anion-transporter, on ^22Na^+uptake. Expression was assessed in the absence or presence of 0.3 mM DIDS. […]

[2] = tested on: water-injected oocytes; test: 22Na+ uptake in water-injected Xenopus laevis oocytes (control); type: cell-based; details: in the presence of 300 μM DIDS, mean ± SE, n=19, 1.6±0.3 in the absence of DIDS
Procedure: as §1, §2, §3

effect on 22Na+ uptake by NCBE ([1]; 300 μM DIDS, NCBE cRNA-injected oocytes (FIG. 5)): partially inhibit | 22Na+ uptake ([1]; NCBE cRNA-injected oocytes, in the presence of 300 μM DIDS, 15 min, standard solution, mean ± SE, n=14, 31.4±2.1 in the absence of DIDS): 6.0±0.7 nmol/oocyte/hour
SMILES: O=S(=O)(O)c1cc(N=C=S)ccc1C=Cc1ccc(N=C=S)cc1S(=O)(=O)O [DIDS, 4,4′-diisothiocyanostilbene-2,2′-disulfonic acid]
22Na+ uptake [2]: 2.1±0.4 nmol/oocytes/hour
